# Reference: patent US20230416329A1, “A PEPTIDE WITH DISULFIDE BONDS AND INHIBITORY ACTIVITY AGAINST SERINE PROTEASES, DERIVED HYBRID PEPTIDES THEREOF, AND USES THEREOF” (INSTITUTE OF MATERIA MEDICA , CHINESE ACADEMY OF MEDICAL …, priority 2020, published 2023)
# Bridge positions count the residues as written; N and C are the ends. Peptide text beside a SMILES is read from it.
# Assays:
# trypsin = target: T1, trypsin (Bos taurus, UniProt P00760); assay: in vitro
# T1 sequence (P00760 24-246): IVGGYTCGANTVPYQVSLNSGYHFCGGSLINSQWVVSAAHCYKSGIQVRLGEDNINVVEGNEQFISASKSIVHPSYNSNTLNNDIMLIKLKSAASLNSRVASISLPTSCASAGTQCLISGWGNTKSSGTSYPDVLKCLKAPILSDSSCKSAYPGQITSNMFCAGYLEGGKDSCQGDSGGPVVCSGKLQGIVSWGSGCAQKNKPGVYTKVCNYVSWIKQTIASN
# Summary of the method: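 Peptides were preincubated for 5 min at 37 °C and then digested with 0.05 μg/μL trypsin solution (stock). Remaining intact peptide was quantified as RP-HPLC peak area.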
# chymotrypsin = chymotrypsin (Bos taurus, UniProt P00766); assay: in vitro; conditions: for Remaining peak area (%)/chymotrypsin: 0 h; for remaining at 0.025 h, 60 μM / remaining at 0.05 h, 60 μM / remaining at 0.075 h, 60 μM / remaining at 0.1 h, 60 μM / remaining at 0.15 h, 60 μM / remaining at 0.25 h, 60 μM / remaining at 0.5 h, 60 μM / remaining at 1 h, 60 μM: isolated enzyme chymotrypsin, pH 7.8, Remaining peak area (%)/chymotrypsin
# Summary of the method: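 Peptide and 0.05 μg/μL chymotrypsin were preincubated at 37 °C for 5 min, then mixed. Aliquots taken from 1.5 up to 60.0 min were quenched with 10% TFA, and remaining peptide was measured as RP-HPLC peak area.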
# elastase = elastase (Sus scrofa, UniProt P00772); assay: in vitro
# elastase, sequence (P00772 27-266): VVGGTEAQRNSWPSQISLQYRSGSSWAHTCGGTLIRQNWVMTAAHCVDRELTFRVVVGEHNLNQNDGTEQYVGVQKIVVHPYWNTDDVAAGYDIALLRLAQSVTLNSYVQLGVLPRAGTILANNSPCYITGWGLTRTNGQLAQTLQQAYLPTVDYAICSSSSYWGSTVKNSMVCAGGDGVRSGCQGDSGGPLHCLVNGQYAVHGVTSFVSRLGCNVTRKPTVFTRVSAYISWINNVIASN
# Protocol: FIG. 19. […] At different time point, 25 μL aliquots was taken out, and 10% (v/v) TFA was added to terminate the reaction.
# (§1) Mix by centrifugation at 8000 rpm for 30 seconds.
# Arrange a certain volume of 0.5 μg/μL elastase solution in another sterile EP. Incubate the EP tubes containing peptides and enzymes at 37° C. for 5 min, and then add 4.5 μL of elastase solution to each EP tube containing peptides and mix well. Start timing and remove 25 μL of reaction solution at 1.5, 3.0, 4.5, 6.0, 9.0, 15.0, 30.0, and 60.0 min later, respectively. Add 3.75 μL of 10% TFA to terminate the reaction and mix well by centrifugation at 8000 rpm for 30 seconds.
# Referring to the experimental method in Example 5, in vitro stability of salmon Calcitonin analogs with oral administration activity to the enzymatic hydrolysis by trypsin, chymotrypsin and elastase were performed.
# Referring to the experimental method in Example 5, in vitro stability of IL-17A inhibitory peptides towards the enzymatic hydrolysis by trypsin, chymotrypsin and elastase were performed.
# DPP-IV = DPP-IV (Homo sapiens, UniProt P27487); assay: Tolerance of GLP-1 and its analogues to DPP-IV (RP-HPLC remaining peak area); assay type: in vitro ADME; conditions: peptide 25 μM, DPP-IV 0.5 ng/μL, 37° C.
# DPP-IV, sequence (P27487 whole entry, species assumed): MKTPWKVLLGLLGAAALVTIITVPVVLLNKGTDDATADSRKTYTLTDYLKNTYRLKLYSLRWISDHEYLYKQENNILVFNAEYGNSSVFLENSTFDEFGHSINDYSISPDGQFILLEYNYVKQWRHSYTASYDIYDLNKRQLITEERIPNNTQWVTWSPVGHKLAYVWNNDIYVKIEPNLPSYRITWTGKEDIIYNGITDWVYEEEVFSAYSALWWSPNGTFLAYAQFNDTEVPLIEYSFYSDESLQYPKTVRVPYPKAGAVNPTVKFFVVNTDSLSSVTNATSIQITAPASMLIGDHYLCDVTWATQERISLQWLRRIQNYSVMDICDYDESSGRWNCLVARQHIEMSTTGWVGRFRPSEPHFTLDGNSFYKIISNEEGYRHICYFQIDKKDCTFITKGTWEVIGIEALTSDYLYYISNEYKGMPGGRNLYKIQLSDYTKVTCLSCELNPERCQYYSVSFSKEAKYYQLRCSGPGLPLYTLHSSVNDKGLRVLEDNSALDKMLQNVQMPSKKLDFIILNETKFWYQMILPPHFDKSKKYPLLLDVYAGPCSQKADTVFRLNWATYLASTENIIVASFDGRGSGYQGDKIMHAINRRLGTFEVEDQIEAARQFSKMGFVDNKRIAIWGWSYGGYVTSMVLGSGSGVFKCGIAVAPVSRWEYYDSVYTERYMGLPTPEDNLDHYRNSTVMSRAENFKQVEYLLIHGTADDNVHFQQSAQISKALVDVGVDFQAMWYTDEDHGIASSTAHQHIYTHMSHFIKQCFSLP
# Protocol: as §1
# (2) Arrange a certain volume of 0.005 μg/μL DPP-IV solution in another sterile EP.
# NEP24.11 = NEP24.11 (Homo sapiens, UniProt P08473); assay: Tolerance of GLP-1 and its analogues to NEP24.11 (RP-HPLC remaining peak area); assay type: in vitro ADME; conditions: peptide 30 μM, NEP24.11 1.0 ng/μL, 37° C.
# NEP24.11, sequence (P08473 whole entry): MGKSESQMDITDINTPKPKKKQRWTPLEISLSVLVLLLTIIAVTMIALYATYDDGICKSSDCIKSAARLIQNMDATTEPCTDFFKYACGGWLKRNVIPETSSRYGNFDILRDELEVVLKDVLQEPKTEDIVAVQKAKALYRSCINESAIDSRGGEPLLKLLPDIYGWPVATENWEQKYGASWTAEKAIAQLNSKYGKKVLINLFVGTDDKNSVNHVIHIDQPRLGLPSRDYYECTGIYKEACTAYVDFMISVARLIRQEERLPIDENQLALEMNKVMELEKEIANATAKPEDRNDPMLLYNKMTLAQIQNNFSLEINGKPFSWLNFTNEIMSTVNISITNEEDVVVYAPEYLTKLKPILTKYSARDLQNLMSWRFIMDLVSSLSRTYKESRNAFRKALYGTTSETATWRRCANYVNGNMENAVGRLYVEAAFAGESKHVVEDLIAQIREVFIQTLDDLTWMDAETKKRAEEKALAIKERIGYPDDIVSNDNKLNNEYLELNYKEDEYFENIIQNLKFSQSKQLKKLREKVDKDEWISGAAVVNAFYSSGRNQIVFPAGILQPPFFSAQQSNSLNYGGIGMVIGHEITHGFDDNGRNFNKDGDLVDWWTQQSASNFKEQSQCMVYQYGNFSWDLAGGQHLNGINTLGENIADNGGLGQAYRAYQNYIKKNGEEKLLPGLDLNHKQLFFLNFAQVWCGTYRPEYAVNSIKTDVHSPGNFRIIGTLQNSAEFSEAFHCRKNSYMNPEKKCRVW
# Protocol: as §1
# Arrange a certain volume of 0.04 μg/μL NEP24.11 enzyme solution in another sterile EP.
# [1] = Stability of GLP-1 and its analogues in human serum; conditions: 25% (v/v) human serum
# [2] = isolated enzyme trypsin, pH 7.8
compound,measurement,setting,value
"CC[C@H](C)[C@H](N)C(=O)N[C@@H](Cc1c[nH]cn1)C(=O)N[C@H](C(=O)N[C@H](C(=O)N[C@H](C(=O)N1CCC[C@H]1C(=O)N[C@@H](C)C(=O)N[C@@H](CC(=O)O)C(=O)N[C@@H](CC(C)C)C(=O)N[C@@H](Cc1c[nH]c2ccccc12)C(=O)N[C@@H](CC(=O)O)C(=O)N[C@@H](Cc1c[nH]c2ccccc12)C(=O)N[C@H](C(=O)N[C@@H](CC(N)=O)C(=O)O)[C@@H](C)CC)[C@@H](C)CC)[C@@H](C)O)C(C)C [17A, reference compound]",stability towards trypsin hydrolysis (in words),trypsin,very stable towards trypsin
same,stability towards chymotrypsin hydrolysis (in words),chymotrypsin,unstable towards chymotrypsin and elastase
same,Remaining peak area (%)/chymotrypsin,chymotrypsin,100.0 ± 0.0%
same,"remaining at 0.025 h, 60 μM",chymotrypsin,68.8 ± 5.5%
same,"remaining at 0.05 h, 60 μM",chymotrypsin,59.2 ± 6.3%
same,"remaining at 0.075 h, 60 μM",chymotrypsin,46.2 ± 5.2%
same,"remaining at 0.1 h, 60 μM",chymotrypsin,41.4 ± 4.5%
same,"remaining at 0.15 h, 60 μM",chymotrypsin,24.3 ± 1.2%
same,stability towards elastase hydrolysis (in words),elastase,unstable towards chymotrypsin and elastase
CC[C@H](C)[C@H](N)C(=O)N[C@@H](Cc1c[nH]cn1)C(=O)N[C@H](C(=O)N[C@H](C(=O)N[C@H](C(=O)N1CCC[C@H]1C(=O)N[C@@H](C)C(=O)N[C@@H](CC(=O)O)C(=O)N[C@@H](CC(C)C)C(=O)N[C@@H](Cc1c[nH]c2ccccc12)C(=O)N[C@@H](CC(=O)O)C(=O)N[C@@H](Cc1c[nH]c2ccccc12)C(=O)N[C@H](C(=O)N[C@@H](CC(N)=O)C(=O)NCC(=O)N[C@H](C(=O)N[C@H]1CSSC[C@@H](C(=O)N[C@@H](CCC(N)=O)C(=O)O)NC(=O)[C@H]([C@@H](C)CC)NC(=O)[C@@H]2CCCN2C(=O)[C@@H]2CCCN2C(=O)[C@H]([C@@H](C)CC)NC(=O)[C@H](CO)NC(=O)[C@H](C)NC(=O)[C@H]([C@@H](C)O)NC1=O)[C@@H](C)CC)[C@@H](C)CC)[C@@H](C)CC)[C@@H](C)O)C(C)C [17A-EC] (H-IHVTIPADLWDWINGICTASIPPICQ-OH; disulfide 17-25),Remaining peak area (%)/chymotrypsin,chymotrypsin,100.0 ± 0.0%
same,"remaining at 0.025 h, 60 μM",chymotrypsin,85.5%
same,"remaining at 0.05 h, 60 μM",chymotrypsin,93.8 ± 2.4%
same,"remaining at 0.075 h, 60 μM",chymotrypsin,89.6%
same,"remaining at 0.1 h, 60 μM",chymotrypsin,91.6 ± 5.3%
same,"remaining at 0.25 h, 60 μM",chymotrypsin,79.8 ± 2.6%
same,"remaining at 0.5 h, 60 μM",chymotrypsin,80.9%
same,"remaining at 1 h, 60 μM",chymotrypsin,68%
same,stability towards elastase hydrolysis (in words),elastase,tolerated to the degradation of corresponding serine proteases
CC[C@H](C)[C@H](NC(=O)[C@H](Cc1ccccc1)NC(=O)[C@H](CCC(=O)O)NC(=O)[C@H](CCCCN)NC(=O)[C@H](C)NC(=O)[C@H](C)NC(=O)[C@H](CCC(N)=O)NC(=O)CNC(=O)[C@H](CCC(=O)O)NC(=O)[C@H](CC(C)C)NC(=O)[C@H](Cc1ccc(O)cc1)NC(=O)[C@H](CO)NC(=O)[C@H](CO)NC(=O)[C@@H](NC(=O)[C@H](CC(=O)O)NC(=O)[C@H](CO)NC(=O)[C@@H](NC(=O)[C@H](Cc1ccccc1)NC(=O)[C@@H](NC(=O)CNC(=O)[C@H](CCC(=O)O)NC(=O)[C@H](C)NC(=O)[C@H](Cc1c[nH]cn1)NC(=O)CNC(=O)CNC(=O)[C@@H](NC(=O)[C@@H]1CCCN1C(=O)[C@@H](NC(=O)CNC(=O)CNC(=O)[C@@H]1CCCN1C(=O)[C@H](Cc1ccccc1)NC(=O)[C@@H]1CSSC[C@H](NC(=O)[C@H](CCCNC(=N)N)NC(=O)CN)C(=O)N[C@@H]([C@@H](C)O)C(=O)N[C@@H](CCCCN)C(=O)N[C@@H](CO)C(=O)N[C@@H]([C@@H](C)CC)C(=O)N2CCC[C@H]2C(=O)N2CCC[C@H]2C(=O)N[C@@H]([C@@H](C)CC)C(=O)N1)[C@@H](C)CC)[C@@H](C)CC)[C@@H](C)O)[C@@H](C)O)C(C)C)C(=O)N[C@@H](C)C(=O)N[C@@H](Cc1c[nH]c2ccccc12)C(=O)N[C@@H](CC(C)C)C(=O)N[C@H](C(=O)N[C@@H](CCCCN)C(=O)NCC(=O)N[C@@H](CCCNC(=N)N)C(=O)NCC(=O)NCC(=O)N[C@@H](CCCCN)C(=O)O)C(C)C [BT1-D-GLP-1],Remaining peak area (%)/DPP-IV,DPP-IV; 0.0 h,100.0 ± 0.0%
same,"remaining at 0.5 h, 25 μM","DPP-IV; isolated DPP-IV enzyme in buffer, pH 8, 0.5 h",72.3 ± 2.4%
same,"remaining at 2 h, 25 μM","DPP-IV; isolated DPP-IV enzyme in buffer, pH 8, 2.0 h",75.3 ± 1.5%
same,"remaining at 4 h, 25 μM","DPP-IV; isolated DPP-IV enzyme in buffer, pH 8, 4.0 h",72.6 ± 2%
same,"remaining at 8 h, 25 μM","DPP-IV; isolated DPP-IV enzyme in buffer, pH 8, 8.0 h",82 ± 3.2%
same,"remaining at 12 h, 25 μM","DPP-IV; isolated DPP-IV enzyme in buffer, pH 8, 12.0 h",82.5 ± 4.9%
same,Remaining peak area (%)/NEP24.11,NEP24.11; 0.0 h,100.0 ± 0.0%
same,"remaining at 0.5 h, 30 μM","NEP24.11; isolated NEP24.11 enzyme in buffer, pH 7.4, 0.5 h",88.2 ± 2.4%
same,"remaining at 2 h, 30 μM","NEP24.11; isolated NEP24.11 enzyme in buffer, pH 7.4, 2.0 h",85.2 ± 0.5%
same,"remaining at 4 h, 30 μM","NEP24.11; isolated NEP24.11 enzyme in buffer, pH 7.4, 4.0 h",79.1 ± 3.2%
same,"remaining at 8 h, 30 μM","NEP24.11; isolated NEP24.11 enzyme in buffer, pH 7.4, 8.0 h, read-out: Remaining peak area (%)/NEP24.11",74 ± 1.3%
same,"remaining at 0.025 h, 60 μM",trypsin; [2],97.3 ± 8.8%
same,"remaining at 0.05 h, 60 μM",trypsin; [2],96.6 ± 2%
same,"remaining at 0.075 h, 60 μM",trypsin; [2],90.4 ± 2.4%
same,"remaining at 0.1 h, 60 μM",trypsin; [2],90.3 ± 2.5%
same,"remaining at 0.15 h, 60 μM",trypsin; [2],89.7 ± 3.4%
same,"remaining at 0.25 h, 60 μM",trypsin; [2],87.3 ± 2.6%
same,"remaining at 0.5 h, 60 μM",trypsin; [2],88.6 ± 4.4%
same,"remaining at 1 h, 60 μM",trypsin; [2],87.7 ± 6.2%
same,"remaining at 0.025 h, 60 μM",chymotrypsin,68.7 ± 1.6%
same,"remaining at 0.05 h, 60 μM",chymotrypsin,61.9 ± 1.5%
same,"remaining at 0.075 h, 60 μM",chymotrypsin,57.4 ± 2.7%
same,"remaining at 0.1 h, 60 μM",chymotrypsin,53.1 ± 0.5%
same,"remaining at 0.15 h, 60 μM",chymotrypsin,49.8 ± 2.8%
same,Remaining peak area (%)/human serum,"[1]; 0.0 h, peptide 0.03 mM, 37° C.",100.0 ± 0.0%
same,serum stability (in words),[1],good serum stability
same,"remaining at 0.5 h, 0.03 mM","[1]; human, pH 7",68.9 ± 7.1%
same,"remaining at 2 h, 0.03 mM","[1]; human, pH 7",95.1 ± 7.5%
same,"remaining at 4 h, 0.03 mM","[1]; human, pH 7",89.4 ± 7.9%
same,"remaining at 8 h, 0.03 mM","[1]; human, pH 7",54.8 ± 4.1%
same,"remaining at 12 h, 0.03 mM","[1]; human, pH 7",49.7 ± 2.5%
CC[C@H](C)[C@H](NC(=O)CNC(=O)[C@@H]1CCCN1C(=O)[C@@H](NC(=O)CNC(=O)[C@H](CO)NC(=O)CNC(=O)[C@@H](NC(=O)[C@H](CC(N)=O)NC(=O)[C@@H](NC(=O)[C@H](CCCNC(=N)N)NC(=O)[C@@H]1CCCN1C(=O)[C@H](Cc1ccc(O)cc1)NC(=O)[C@@H](NC(=O)[C@H](CCC(N)=O)NC(=O)[C@H](CC(C)C)NC(=O)[C@H](CCCCN)NC(=O)[C@H](Cc1c[nH]cn1)NC(=O)[C@H](C)NC(=O)[C@H](CCC(=O)O)NC(=O)[C@H](CCC(N)=O)NC(=O)[C@H](CO)NC(=O)[C@H](CC(C)C)NC(=O)[C@H](CCCCN)NC(=O)CNC(=O)[C@H](CC(C)C)NC(=O)CNC(=O)[C@@H]1CSSC[C@H](N)C(=O)N[C@@H](CO)C(=O)N[C@@H](CC(N)=O)C(=O)N[C@@H](CC(C)C)C(=O)N[C@@H](CO)C(=O)N[C@@H]([C@@H](C)O)C(=O)N1)[C@@H](C)O)[C@@H](C)O)[C@@H](C)O)[C@@H](C)O)C(=O)N[C@H]1CSSC[C@@H](C(=O)N[C@@H](CCC(N)=O)C(=O)O)NC(=O)[C@H]([C@@H](C)CC)NC(=O)[C@@H]2CCCN2C(=O)[C@@H]2CCCN2C(=O)[C@H]([C@@H](C)CC)NC(=O)[C@H](CO)NC(=O)[C@H](C)NC(=O)[C@H]([C@@H](C)O)NC1=O [Cal-EC],stability towards chymotrypsin hydrolysis (in words),chymotrypsin,certain tolerance to chymotrypsin
same,Remaining peak area (%)/chymotrypsin,chymotrypsin,100.0 ± 0.0%
same,"remaining at 0.025 h, 60 μM",chymotrypsin,95.4%
same,"remaining at 0.05 h, 60 μM",chymotrypsin,31.3%
same,"remaining at 0.1 h, 60 μM",chymotrypsin,29.3 ± 1.4%
same,"remaining at 0.15 h, 60 μM",chymotrypsin,27.8 ± 0.2%
same,"remaining at 0.25 h, 60 μM",chymotrypsin,22.3%
same,"remaining at 0.5 h, 60 μM",chymotrypsin,21.4%
same,"remaining at 1 h, 60 μM",chymotrypsin,19.3%
same,stability towards elastase hydrolysis (in words),elastase,resistant to the corresponding protease degradation
